Source: patent US12485079B2, “Compositions and methods relating to pigmentation” (Alastin Skincare, Inc., priority 2020, dated 2025)

Assays:
[1] = tested on: carrageenan-induced inflammation; conditions: rats; cited from earlier work
[2] = tested on: UV-B-induced hyperpigmentation; conditions: topical application for 4 weeks, mice skin; cited from earlier work
[3] = tested on: pigmented reconstructed epidermis; conditions: cited from earlier work
[4] = tested on: hTERT-immortalized dermal melanocytes; conditions: human
Experimental: (§4) Melanocytes were initially plated in 6-well tissue culture plate (1.5×10^3 cells per well) in melanocyte growth media (Dermal Cell Basal Medium (ATCC® PCS-200-030 supplemented with Melanocyte Growth Kit (ATCC® PCS-200-041). Melanocytes were then expanded into 10 cm tissue culture plates at concentrations recommended by ATCC. The cells appear to fully adhere to the plate/dish while culturing with a webbed morphology. Cells were cultured at 37° C. 5% CO2 incubator.
(§5) Once the melanocytes were 100% confluent in 6-well plates, the melanocyte growth media was removed and the melanocytes were treated with media containing the above compounds; duplicate wells for each compound/concentration listed above. The duplicate vehicle control wells were fed melanocyte growth media only or melanocyte growth media with DMSO (10 uL per 10 mL melanocyte growth media).
(§6) The cells were fed the appropriate media for the next 5 days. Each day, the cells were inspected for morphology.

[5] = tested on: hTERT-immortalized dermal melanocytes; test: Melanocyte assay, daily inspection of morphology and survival (Example 6); conditions: both concentrations of the compound
Experimental: as §4, §5, §6

[6] = tested on: melanocytes (melanin production); test: In vitro melanocyte comparative analysis via absorbance readings (Example 4); format: cell-based; conditions: for regulation of melanogenesis (decrease of absorption = decreased melanin formation): Table 8; for Absorbance 405 nm / Absorbance 490 nm / Absorbance 492 nm: melanocyte lysates
Experimental: Melanocytes were cultured in 6-well plates containing growth media. Once confluent, 2 concentrations of each of the 10 compounds were added to the cells in triplicate wells for 4 days. There were a total of eleven 6-well plates, one for each compound treatment and one for the vehicle control. Absorbance readings were taken on the lysates prepared for each well of the 6-well plates, normalizing for cells counts. […] Additional validation was carried out using MSH addition to media to confirm increased stimulation of melanin production. The following compounds used in this study are seen in Table 7.

[7] = tested on: SCF, LIF, POMC, endothelin genes, PGE2, NGF in keratinocytes; test: Gene expression study (RNA sequencing) in keratinocytes; format: cell-based, human; conditions: 24 hours of compound exposure
Experimental: (§1) Four cell types associated with pigmentation pathways-melanocytes, keratinocytes, fibroblasts and endothelial (HUVEC) cells-were analyzed for gene expression.
(§2) To simulate the UV stimulatory pigmentation pathway process, melanocytes were pre-treated with PGE2, a normal direct consequence of UV light exposure usually emanating from exposed keratinocytes. After the 48 hour attachment culture, these melanocytes were induced with 10 uM PGE2 in melanocyte media for 24 hrs. The four primary human adult dermal cell lines were cultured and plated in well plates in triplicate and then treated with 11 different compound treatments (plus DMSO control). After 48 hours of attachment culture, the remaining fibroblasts, HUVECs and keratinocytes were treated with the test compounds listed in Table 6.
(§3) After 24 hours of compound exposure, RNA lysate preparation was carried out and samples were shipped to MedGenome for RNA extraction, library construction and sequencing to 25M paired end 100 bp reads per sample. Library prep and sequencing was completed at MedGenome.

melanogenic genes = test: Cell line melanogenic gene activity testing, overall conclusion; format: cell-based, human; conditions: conclusion over melanocytes, keratinocytes, HUVECs
Experimental: as §1, §2, §3

[8] = tested on: melanogenic genes in melanocytes; test: Gene expression study (RNA sequencing) in PGE2-induced melanocytes; format: cell-based, human
Experimental: as §1, §2, §3

MITF = test: In vitro MITF gene expression test in cultured fibroblasts; format: cell-based; conditions: 48 hours
Experimental: Microphthalmia-associated transcription factor (MITF) is a master regulator of pigmentation and melanin transfer and a potential new target for hyperpigmentation and melanoma. In vitro MITF gene expression tests were carried out to ascertain differences between individual peptides (tripeptide-1 and hexapeptide-12) and their combination in terms of MITF downregulation.
Specifically, the tests were conducted by culturing fibroblasts and then adding tripeptide-1, hexapeptide-12, or a combination of both. After 48 hours, MITF gene expression was analyzed.

[9] = tested on: PMEL, tyrosinase genes, MC1/4R, EDNRB, MITF, ERK1/2, JNK, AKT1; test: Gene expression studies of Example 5; format: cell-based
Excerpt: The methods similar to Examples 3-4 were used to measure expression of PMEL, tyrosinase genes, MC1/4R, EDNRB, MITF, ERK1/2, JNK, and ANKT1.
FIGS. 10A-10D illustrates the expression of PMEL (FIG. 10A), Tyrosinase genes (FIG. 10B), MC1/4R (FIG. 10C), and EDNRB (FIG. 10D) after treatment of endothelial cells with lactoferrin (Lacto), peptide derived from lactoferrin (TCV), hexapeptide-12 (Hex12), tripeptide-1 and hexapeptide-12 (TriHex), hexapeptide-11 (Hex11), tranexamic acid (Tran acid) octapeptide (Octa), phosphatidylserine (phos), Cannabidiol (CBD), and all (total).
MITF is regulated by phosphorylation. Specifically, the MAPK and Akt pathways are known to phosphorylate MITF at certain sites. FIGS. 12A-12C illustrate the expression of ERK1/2 (MAPK3/MAPK1) (FIG. 12A), JNK (FIG. 12B), AKT1 (FIG. 12C) after treatment of endothelial cells with lactoferrin (Lacto), peptide derived from lactoferrin (TCV), hexapeptide-12 (Hex12), tripeptide-1 and hexapeptide-12 (TriHex), hexapeptide-11 (Hex11), octapeptide (Octa), phosphatidylserine (phos), Cannabidiol (CBD), and all (total).

[10] = tested on: EDN1 and other melanogenic genes in HUVECs; test: Gene expression study (RNA sequencing) in HUVECs; format: cell-based, human; conditions: 24 hours of compound exposure
Experimental: as §1, §2, §3

C=C(C)[C@@H]1CCC(C)=C[C@H]1c1c(O)cc(CCCCC)cc1O [CBD, Cannabidiol]
PGE2, nitric oxide (NO), and malondialdehyde production, together with COX activity [1]: reduced

O=C(O)c1cc(O)c(O)c(O)c1 [GA, Gallic acid]
UV-B-induced hyperpigmentation [2]: significantly rescued

COc1ccc([C@@H]2CC(=O)c3c(O)cc(O[C@@H]4O[C@H](CO[C@@H]5O[C@@H](C)[C@H](O)[C@@H](O)[C@H]5O)[C@@H](O)[C@H](O)[C@H]4O)cc3O2)cc1O [Hesperidin]
skin lightening effect [3]: showed skin lightening effect

C/C=C1/[C@H](O[C@@H]2O[C@H](CO)[C@@H](O)[C@H](O)[C@H]2O)OC=C(C(=O)OC)[C@H]1CC(=O)OCCc1ccc(O)c(O)c1 [Oleuropein]
time post-initial dosing at which all or nearly all melanocytes were dead [4]: 72 h
time post-initial dosing at which melanocytes started dying [5]: 24 h

Oc1ccc2c(c1)OCO2 [Sesamol]
regulation of melanogenesis (decrease of absorption = decreased melanin formation) ([6]; melanocytes): Regulation of melanogenesis was also observed

NC[C@H]1CC[C@H](C(=O)O)CC1 [Tranexamic Acid, Tranexamic acid, reference compound]
regulation of melanogenesis (decrease of absorption = decreased melanin formation) ([6]; melanocytes): Regulation of melanogenesis was also observed

Hexapeptide-11 [HEX-11]
melanogenesis activity (FIGS. 6A-6F, FIG. 7) [7]: active ingredient in melanogenesis activity
regulation of melanogenesis (decrease of absorption = decreased melanin formation) ([6]; melanocytes): Regulation of melanogenesis was observed
effects on melanogenesis activity (melanogenic genes): significant effects on melanogenesis activity

Hexapeptide-12 [HEX-12]
melanogenic activity (FIGS. 3A-3D) ([8]; melanocytes pre-treated with 10 uM PGE2, 24 hours of compound exposure): particularly dominant in melanogenic activity
expression of melanogenic genes (FIG. 4, FIG. 5) ([8]; melanocytes, 24 hours of compound exposure): downregulation of melanogenic genes
Absorbance 405 nm ([6]; 2.9 ug/mL): 1.32
Absorbance 490 nm ([6]; 2.9 ug/mL): 0.94
Absorbance 492 nm ([6]; 2.9 ug/mL): 0.64
Absorbance 405 nm ([6]; 4.9 ug/mL): 0.96
Absorbance 490 nm ([6]; 4.9 ug/mL): 0.64
Absorbance 492 nm ([6]; 4.9 ug/mL): 0.46
stimulation of melanin production (model validation) ([6]; melanocytes): decreased stimulation
regulation of melanogenesis (decrease of absorption = decreased melanin formation) ([6]; melanocytes): Regulation of melanogenesis was observed
MITF gene expression (MITF; 80 ppm Hexapeptide, negative = downregulation): −1.16
effects on melanogenesis activity (melanogenic genes): significant effects on melanogenesis activity
melanogenic activity (expression of PMEL, Tyrosinase genes, MC1/4R, EDNRB; FIGS. 10A-10D) ([9]; after treatment of endothelial cells): robust melanogenic activity
effects on melanogenic activity (kinase expression linked to decreased MITF expression) ([9]; conclusion of Example 5): significant effects

Phosphatidylserine
regulation of melanogenesis (decrease of absorption = decreased melanin formation) ([6]; melanocytes): Regulation of melanogenesis was observed
activity on EDN1 and other melanogenic genes (FIG. 9) [10]: potent activity
effects on melanogenesis activity (melanogenic genes): significant effects on melanogenesis activity

Tripeptide-1
MITF gene expression (MITF; 120 xppm Tripeptide, positive = upregulation): 1.72
MITF gene expression (MITF; 120 xppm Tripeptide, positive = upregulation, listed as tripeptide-1): +1.72
